Reference: patent US8603532B2, “Nanostructures for drug delivery” (priority 2008, dated 2013)
Like-named read-outs stand apart in the source and are kept apart here.

Key:
PC3 cells = experiment: In vitro cytotoxicity, MTT assay; format: cell-based, human; conditions: 72 h
Description: (§1) A series of in vitro cytotoxicity assays were performed to understand the anti-cancer properties of platinum(IV)-encapsulated nanoparticles, using human prostate cancer cells, and directly compared its efficacy to that of free cisplatin. The choice of the cancer cells was based on the presence of PSMA, as mentioned before. […] As shown in this figure, the Pt(IV)encapsulated polymeric nanoparticles containing PSMA aptamers on the surface (Pt—NP-Apt) were highly cytotoxic to the LNCaP cells, which up-regulate PSMA on the surface, giving an IC50 value of 0.03 μM. […] The PSMA^+ aptamer targeted Pt(IV)-encapsulated PLGA-b-PEG nanoparticles (Pt—Np-Apt) were 80 times more toxic in the PSMA LNCaP cells, indicating potential application of these nanoparticles in human prostate cancer.

PSMA+ LNCaP cells = experiment: In vitro cytotoxicity, MTT assay; format: cell-based, human; conditions: 72 h
Description: as §1

Male Sprague Dawley Rats = experiment: Maximum tolerated dose (MTD) study, intravenous; format: in vivo; conditions: for Death: 3 rats; for dose tolerated by the rats / MTD: i.v.; for dose tolerated by the rats: survival; for MTD: 14 days monitoring
Source text: The maximum tolerated dose (MTD) of chemotherapeutic agents may be a critical factor for achieving optimal therapeutic benefit. The effectiveness of chemotherapeutic agents is generally proportional to the dose of the agents at their targets; however, the dose may be limited by systemic toxicity. In this non-limiting example, the therapeutic effectiveness of a platinum(IV) prodrug was attempted to be increased by increasing the maximum tolerated dose (MTD) of the prodrug by using a polymeric nanoparticle drug delivery systems. Various doses of cisplatin, Pt(IV)-prodrug (compound 1 from Example 1), Pt—NP (from Example 1), or PLGA-PEG-NP (control, nanoparticles not comprising platinum complexes) were injected intravenously and the MTD was estimated based on the threshold at which all […] survived.
Male Sprague Dawley Rats were used for MTD determination with intravenous administration. All rats treated with plain nanoparticles tolerated these doses. In the Pt—NP group, rats receiving doses up to 40 mg/kg tolerated the dose, but two of three in the 50 and 60-mg/kg groups died. Only the dose of 20 mg/kg free cisplatin or Pt(IV)-prodrug were tolerated by the rats. To further define the MTD, overall toxicity was monitored for 14 days. As a sign of toxicity, the body weights of rats were measured.

[1] = 1 h post administration, literature value; cited from earlier work
[2] = Cyclic voltammetry, Pt(IV)/Pt(II) reduction potential; format: physicochemical
Description: The identity of the platinum species released from the polymeric nanoparticles was determined by ESI-MS. […] The redox potentials were also investigated for reduction of compound 1 at various pH values. […] NPs before reaching the nuclear DNA.

[3] = Blood circulation and excretion studies; format: in vivo; conditions: rat, 2 mg/kg i.v., 1 h post administration
Description: Male Sprague Dawley rats were used in this study. Separate groups of animals received i.v. injections of Pt—NP (2 mg/kg) or Pt(IV)-prodrug (2 mg/kg) and were placed in metabolism cages. Blood was collected at predetermined time points in heparinized tubes. Whole organs or representative tissue samples were removed and weighed where necessary. Urine was collected for 24 h. Plasma was obtained from the blood samples by […]. Samples were analyzed for their platinum content using a Perkin Elmer Flameless Atomic Absorption Spectrophotometer.

“[cis-Pt(NH3)2Cl2] [cisplatin, reference compound]” showed an IC50 (PC3 cells) of 0.18 µM, an IC50 (PSMA+ LNCaP cells) of 2.4 µM and a Death (Male Sprague Dawley Rats; 5 mg/kg i.v.) of 0. For the same substance, the Death (Male Sprague Dawley Rats; 10 mg/kg i.v.) was 0, the Death (Male Sprague Dawley Rats; 20 mg/kg i.v.) was 0 and the Death (Male Sprague Dawley Rats; 40 mg/kg i.v.) was 3. The “dose tolerated by the rats” value (Male Sprague Dawley Rats) was 20 mg/kg, the MTD (Male Sprague Dawley Rats; rats) was 20 mg/kg and the “platinum dose remaining in the systemic circulation” value [1] was 1.5%.
With “c,c,t-[Pt(NH3)2(O2CCH2CH2CH2CH2CH2)2Cl2] [compound 1]” the “Pt(IV)/Pt(II) couple, irreversible cyclic voltammetric response” value (from here on “Pt(IV)/Pt(II) couple”) ([2]; 1:4 DMF-sodium phosphate buffer, pH 6.0) was about −0.243 V vs. NHE, the “Pt(IV)/Pt(II) couple” value ([2]; 1:4 DMF-sodium phosphate buffer, pH 7.4) was about −0.233 V vs. NHE and the “Pt(IV)/Pt(II) couple” value ([2]; MeCN-0.1 M TBAPF6) was about −0.805 V vs. NHE. It also gave a Death (Male Sprague Dawley Rats; 5 mg/kg i.v.) of 0, a Death (Male Sprague Dawley Rats; 10 mg/kg i.v.) of 0 and a Death (Male Sprague Dawley Rats; 20 mg/kg i.v.) of 0. For the same substance, the Death (Male Sprague Dawley Rats; 40 mg/kg i.v.) was 2, the “dose tolerated by the rats” value (Male Sprague Dawley Rats) was 20 mg/kg and the MTD (Male Sprague Dawley Rats; rats) was 20 mg/kg. For the same substance, the body weight change (Male Sprague Dawley Rats; rats, up to 20 mg/kg, 14 days) was “did not show any weight loss” and the “platinum dose remaining in the systemic circulation” value [3] was 15.6%.
